The source of these data is patent US20240342179A1, “TREATMENT OF CANCERS OR NEOPLASMS BY INHIBITING KIF15” (University of Kansas, priority 2023, published 2024).

The test system of series [1] is HIO-80, HIO-118, FT190, FT194. The experiment in a line: CellTiter Glo cell viability, immortalized non-tumorigenic cell lines. It is filed as cell-based. Particulars: control cell lines, 72 hours. (In general: In ATP-based viability assays light output follows the ATP content of the culture.)
The test system of series [2] is ovarian cancer cell lines. Particulars: 72 h.
For series [3], the system named is ovarian cancer cell lines. The experiment in a line: cells. Particulars: 72 h, read-out: IC50 cell viability.
For a further series, the target named is KIF11 (Homo sapiens (Human), UniProt P52732). Conditions: b18, cited from earlier work.
For the next series, the target named is KIF15 (Homo sapiens (Human), UniProt Q9NS87). Conditions: read-out: median inhibitory concentration; cited from earlier work.
In series [4] the target is KIF15/TPX2 protein-protein interaction (GST-KIF15 amino acids 1149-1388, His-TPX2 amino acids 346-747) (Homo sapiens (Human), UniProt Q9NS87). The experiment in a line: KIF15/TPX2 AlphaScreen assay. It is filed as binding. As for the experimental part:
The protocol designed peptides corresponding to the appropriate domains of KIF15 (amino acids 1149-1388, GST-tagged) and TPX2 (amino acids 346-747, His-tagged), for use in the AlphaScreen assay.
Next, the protocol screened a total of 191,852 compounds from the KU-HTS library. Analysis identified 584 hits that inhibited the primary AlphaScreen TPX2-KIF15 interaction to greater than three standard deviations plus the plate inhibition-median. The 584 hits were tested for assay interference in the AlphaScreen counter-screen using His-GST fusion protein. […] Of the 467 hits, 399 inhibited the TPX2-KIF15 interaction in a dose-response manner. Refinement was conducted until identifying the compounds provided herein.
To identify compounds that inhibit KIF15-mediated bipolar spindle formation, a process that is dependent on KIF15 binding to TPX2, the protocol designed a high-throughput screen using AlphaScreen Technology. Previous studies predicted that KIF15-TPX2 binding is mediated through a C-terminal coiled-coil domain on KIF15 (amino acids 1149-1388; amino acids 1359-1380) that binds the C-terminal region of TPX2 (amino acids 475-715; amino acids 680-747)^50, 52, 57, 58. Based on these observations, the protocol designed peptides corresponding to the appropriate domains of TPX2 (amino acids 346-747, His-tagged), and KIF15 (amino acids 1149-1388, GST-tagged) for use in the AlphaScreen assay.
Next, the protocol screened a total of 191,852 compounds from the KU-HTS small-molecule compound collection. The protocol identified 584 hits that inhibited the primary AlphaScreen TPX2-KIF15 interaction to greater than three standard deviations plus the plate inhibition-median. The 584 hits were tested for assay interference in the AlphaScreen assay counter-screen using His-GST fusion protein eliminating 117 compounds^99. […] Of the 467 hits, 399 inhibited the KIF15-TPX2 interaction in a concentration-dependent manner (FIGS. 3A-3D), rendering them candidates for follow-on validation in orthogonal and counter-screen assays. Informed by computational and medicinal chemistry assessment^100, the protocol selected a representative subset of approximately 200 of the 399 compound hits for additional characterization. Samples for 177 compounds from the subset of approximately 200 representative compounds were available for purchase. Samples of these 177 compounds were purchased for structure verification by NMR and further characterization. There was enough compound sample procured to complete follow-on screening for 166 of the 177 compounds.

Another series addresses GST-KIF15 1149-1388 (Homo sapiens (Human), UniProt Q9NS87). Nature of the series: NMR (STD-NMR / WaterLOGSY) versus GST-KIF15. Conditions: for WaterLOGSY binding to GST-KIF15: 1:150 GST-KIF15 1149-1388. Type of series: binding. On the procedure: (§1) WaterLOGSY NMR Spectra of Compounds A1 and B2 are provided.
Various cocktails of compounds were prepared to test for interactions. 100 μL DMSO-d6 was added to 3 mg of material. 26 cocktails of 6 compounds were prepared and 3 cocktails of 7 compounds were prepared. Then, 3 μM protein is added to 300 μM of the cocktails in 10% D2O buffer. Concentration of compounds is 10 mM each.
(§2) The 166 compound hit samples were further characterized for KIF15 or TPX2 binding using biophysical saturation transfer difference nuclear magnetic resonance (STD-NMR) and WaterLOGSY assays. The 166 compound samples were screened by STD-NMR for evidence of binding to GST-KIF15 or His-TPX2. In our assessment, no hits bound to His-TPX2. The protocol counter-screened potential hits against a His-GST peptide^99 and for aggregation using protein-free controls. Ultimately, three compound hits representing two compound chemotypes were validated to bind KIF15 by WaterLOGSY (FIGS. 4A-4B).

For the next series, the target named is His-TPX2 346-747 (Homo sapiens (Human), UniProt Q9ULW0). The experiment in a line: NMR (STD-NMR / WaterLOGSY) versus His-TPX2. Conditions: 1:150 His-TPX2 346-747. Type of series: binding.
Text: as §1, §2

A further series deals with KIF15-HiBiT (Homo sapiens (Human), UniProt Q9NS87). Nature of the series: Cellular thermal shift assay (CETSA), HiBiT split luciferase. Type of series: cell-based. Conditions: 100 μM. As for the experimental part: To verify that the three putative binders of KIF15 identified by NMR spectroscopy against KIF15 fragments, a cellular thermal shift assay was performed. All three compounds at 100 μM stabilized KIF15 when thermally challenged to a greater extent than the TPX2 mimetic peptide used as a positive control (Δ5.7° C. for compound A1, Δ5.3° C. for compound A2, and Δ9.6° C. for compound B1, Δ2.1° C. for TPX2 mimetic peptide).
The HiBiT Split Luciferase based protein detection method utilized for screening of candidate compounds for physical binding to KIF15. […] The increase in stability of the protein indicates ligand engagement by stabilizing the protein in a natured conformation.
These three compound hits, referred to as Compounds A1, A2 and B1 (FIG. 3A) were screened for target engagement in CETSA. In short, a split luciferase tag known as HiBiT (Promega, Madison, WI) was fused to the KIF15 protein in a transient expression vector. Soluble protein can be easily quantified by adding the LgBiT subunit of nano luciferase. A stabilizing shift in the melting temperature of the protein indicates the protein is being stabilized by the engaged small molecule indicating direct binding of the small molecule to its target.
Background: With HiBiT, luminescence reflects the tagged protein that the partner subunit can reach.

In series [5] the test system is EOC cell lines (A2780, OVCAR5, and SKOV3). Nature of the series: Synergy with ispinesib in cell viability (Bliss score). Particulars: combination with ispinesib. Type of series: cell-based. The source says:
The protocol tested all 166 samples of compound hits for complete screening for synergism in KIF11-inhibited cells EOC cell lines (A2780, OVCAR5, and SKOV3) (FIGS. 5A-5C).
Bliss score analyzes the statistical independence of the two treatments. A positive score indicates synergism, a negative score indicates antagonism and a score of zero indicates a purely additive effect of the combination therapy.

Sequence of GST-KIF15 1149-1388 (Q9NS87 1149-1388): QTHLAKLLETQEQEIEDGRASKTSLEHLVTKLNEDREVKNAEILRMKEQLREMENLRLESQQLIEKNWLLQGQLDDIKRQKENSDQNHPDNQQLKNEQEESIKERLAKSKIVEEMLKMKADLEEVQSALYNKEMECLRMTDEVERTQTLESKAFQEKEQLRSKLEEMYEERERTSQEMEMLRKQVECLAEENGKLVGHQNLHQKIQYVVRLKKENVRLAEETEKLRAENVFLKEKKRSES
Sequence of KIF11 (P52732 whole entry): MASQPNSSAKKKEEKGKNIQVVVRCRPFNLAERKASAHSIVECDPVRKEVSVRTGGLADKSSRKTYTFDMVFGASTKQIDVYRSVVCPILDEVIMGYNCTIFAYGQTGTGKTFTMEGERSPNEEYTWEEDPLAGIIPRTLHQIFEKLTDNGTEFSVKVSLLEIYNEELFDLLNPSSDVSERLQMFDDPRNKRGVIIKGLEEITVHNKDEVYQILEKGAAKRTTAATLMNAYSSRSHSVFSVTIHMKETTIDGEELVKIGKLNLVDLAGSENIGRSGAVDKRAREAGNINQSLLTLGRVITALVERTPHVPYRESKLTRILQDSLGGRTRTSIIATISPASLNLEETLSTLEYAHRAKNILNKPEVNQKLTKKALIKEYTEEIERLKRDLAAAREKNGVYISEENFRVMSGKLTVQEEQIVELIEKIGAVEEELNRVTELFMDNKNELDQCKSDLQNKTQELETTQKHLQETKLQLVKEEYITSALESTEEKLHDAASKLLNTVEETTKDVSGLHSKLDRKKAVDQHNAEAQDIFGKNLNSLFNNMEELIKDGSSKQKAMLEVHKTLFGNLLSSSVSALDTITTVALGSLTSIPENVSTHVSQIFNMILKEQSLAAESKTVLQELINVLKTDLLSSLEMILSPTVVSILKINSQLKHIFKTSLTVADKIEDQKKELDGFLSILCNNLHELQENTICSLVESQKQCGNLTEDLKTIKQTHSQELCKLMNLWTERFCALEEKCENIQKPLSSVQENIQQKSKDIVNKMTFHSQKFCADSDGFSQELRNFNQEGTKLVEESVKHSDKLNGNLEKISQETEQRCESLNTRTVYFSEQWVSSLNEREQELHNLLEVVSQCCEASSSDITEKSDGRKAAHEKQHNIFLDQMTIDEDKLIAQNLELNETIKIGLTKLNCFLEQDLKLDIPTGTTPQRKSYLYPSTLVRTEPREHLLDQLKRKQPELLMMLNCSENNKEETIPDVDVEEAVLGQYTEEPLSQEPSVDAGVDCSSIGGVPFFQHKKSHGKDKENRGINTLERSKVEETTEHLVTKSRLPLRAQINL
Sequence of His-TPX2 346-747 (Q9ULW0 346-747): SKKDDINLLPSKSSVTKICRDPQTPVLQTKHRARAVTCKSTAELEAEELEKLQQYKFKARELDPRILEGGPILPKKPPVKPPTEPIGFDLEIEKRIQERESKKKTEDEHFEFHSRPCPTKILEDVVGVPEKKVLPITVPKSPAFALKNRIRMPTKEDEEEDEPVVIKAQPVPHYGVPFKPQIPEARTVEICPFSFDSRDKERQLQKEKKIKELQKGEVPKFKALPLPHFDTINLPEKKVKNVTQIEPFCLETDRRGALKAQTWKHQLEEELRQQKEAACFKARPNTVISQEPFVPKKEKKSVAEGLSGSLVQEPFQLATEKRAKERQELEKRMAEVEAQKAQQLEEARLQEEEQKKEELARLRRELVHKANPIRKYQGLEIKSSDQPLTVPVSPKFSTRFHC
Sequence of KIF15-HiBiT (Q9NS87 whole entry, the tested form may be a part): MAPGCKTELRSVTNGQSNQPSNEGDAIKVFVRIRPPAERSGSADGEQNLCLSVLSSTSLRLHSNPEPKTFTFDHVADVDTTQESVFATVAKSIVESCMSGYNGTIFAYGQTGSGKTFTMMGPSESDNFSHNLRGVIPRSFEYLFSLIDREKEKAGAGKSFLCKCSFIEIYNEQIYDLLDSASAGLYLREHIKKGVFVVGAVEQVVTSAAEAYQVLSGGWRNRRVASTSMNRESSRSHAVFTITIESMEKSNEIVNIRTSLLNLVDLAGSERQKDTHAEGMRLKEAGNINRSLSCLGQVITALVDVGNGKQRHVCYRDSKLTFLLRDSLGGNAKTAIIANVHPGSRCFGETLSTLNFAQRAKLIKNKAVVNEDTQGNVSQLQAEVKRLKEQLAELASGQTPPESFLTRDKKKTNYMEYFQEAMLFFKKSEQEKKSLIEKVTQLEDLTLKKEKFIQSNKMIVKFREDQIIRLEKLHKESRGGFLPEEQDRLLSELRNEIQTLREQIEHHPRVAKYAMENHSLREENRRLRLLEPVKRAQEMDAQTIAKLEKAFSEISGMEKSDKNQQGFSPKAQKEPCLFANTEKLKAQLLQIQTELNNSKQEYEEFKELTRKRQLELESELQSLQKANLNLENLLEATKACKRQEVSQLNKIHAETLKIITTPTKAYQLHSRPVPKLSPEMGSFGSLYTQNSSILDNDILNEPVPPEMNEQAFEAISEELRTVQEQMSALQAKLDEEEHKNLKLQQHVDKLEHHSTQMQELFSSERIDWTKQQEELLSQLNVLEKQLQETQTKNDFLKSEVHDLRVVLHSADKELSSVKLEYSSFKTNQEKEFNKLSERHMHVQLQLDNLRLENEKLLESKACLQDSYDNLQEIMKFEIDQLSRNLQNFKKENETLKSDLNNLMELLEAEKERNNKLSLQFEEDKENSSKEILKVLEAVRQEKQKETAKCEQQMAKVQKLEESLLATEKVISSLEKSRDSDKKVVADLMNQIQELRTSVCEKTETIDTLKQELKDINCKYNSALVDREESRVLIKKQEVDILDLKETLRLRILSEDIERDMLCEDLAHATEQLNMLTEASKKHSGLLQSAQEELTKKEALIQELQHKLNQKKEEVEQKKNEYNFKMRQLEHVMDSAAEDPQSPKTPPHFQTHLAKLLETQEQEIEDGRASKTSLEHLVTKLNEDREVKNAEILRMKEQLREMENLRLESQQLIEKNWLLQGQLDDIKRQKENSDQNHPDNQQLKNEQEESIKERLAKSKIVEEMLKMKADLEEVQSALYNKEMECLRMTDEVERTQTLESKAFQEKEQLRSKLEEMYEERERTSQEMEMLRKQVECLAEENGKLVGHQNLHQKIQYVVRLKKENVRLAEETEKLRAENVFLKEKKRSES
Sequence of KIF15/TPX2 protein-protein interaction (GST-KIF15 amino acids 1149-1388, His-TPX2 amino acids 346-747) (Q9NS87 1149-1388): as the sequence (Q9NS87 1149-1388) above
Sequence of KIF15 (Q9NS87 whole entry, the tested form may be a part): as the sequence (Q9NS87 whole entry, the tested form may be a part) above

`Cc1ccc(C(=O)N(CCCN)[C@@H](c2nc3cc(Cl)ccc3c(=O)n2Cc2ccccc2)C(C)C)cc1` [ispinesib]: the IC50 in series [1] was in the range of 0.00704 to 0.0234 µM; in series [3], 0.00107 to 0.0158 µM. Moreover, the loss of viability entry in series [2] is given as “greater than 50%”.
Consider `CON(C)C(=O)N1N=C(c2cc(F)ccc2F)S[C@@]1(CCCN)c1ccccc1` [filanesib], for which the Ki at KIF11 (read-out: K values) was 0.006 µM.
For the compound `CCOC(=O)C1=C(C)NC(=S)NC1c1cccc(O)c1` (stereo not shown) [monastrol], the “inhibit motor ATP hydrolysis” value at KIF11 was 4.9 µM.
Take `O=C1Nc2ccc(C(=O)c3ccco3)cc2/C1=C/c1cc(Cl)c(O)c(Cl)c1` [GW108X]: on KIF15, the IC50 was 0.8 µM.
Take `C=CCn1c(C(=O)NCc2ccccn2)cc2sc(C)cc21` [Compound 14, 4-allyl-2-methyl-N-(pyridin-2-ylmethyl)-4H-thieno[3,2-b]pyrrole-5-carboxamide]: the figures for the IC50 (in series [4]; in the series “TruHits counter-screen”) were 5.6 ± 0.3 µM and 87 ± 2 µM, respectively. Moreover, the “WaterLOGSY binding to GST-KIF15” value at GST-KIF15 1149-1388 is listed as “indicates binding”. In addition, at His-TPX2 346-747, the “WaterLOGSY / STD-NMR binding to His-TPX2” value is reported as “not observed”. At KIF15-HiBiT, the “shift in thermostability of KIF15” value is reported as “significant shift in thermostability”. In addition, the “synergy with ispinesib in inhibition of growth” value in series [5] is on record as “Synergy”.
`CCN1CCN(c2ncc3c(n2)CCN(Cc2ccccc2Cl)C3)CC1` [Compound 10, 6-(2-chlorobenzyl)-2-(4-ethylpiperazin-1-yl)-5,6,7,8-tetrahydropyrido[4,3-d]pyrimidine]: the values for the IC50 (in [4]; in “TruHits counter-screen”) were 1.5 ± 0.01 µM and 86 ± 16 µM, respectively. The “WaterLOGSY binding to GST-KIF15” value at GST-KIF15 1149-1388 was “indicates binding”. Moreover, on GST-KIF15 1149-1388 (Hit / No), the “NMR Versus GST-KIF15” value was “Hit”. Besides, on His-TPX2 346-747, the “WaterLOGSY / STD-NMR binding to His-TPX2” value was “not observed”. Moreover, at KIF15-HiBiT, the “shift in thermostability of KIF15” value was “significant shift in thermostability”. The “synergy with ispinesib in inhibition of growth” value in series [5] was “Synergy”.
